Results taken from patent US20090286722A1 (priority 2005, published 2009).
pEC50: −log10 of the molar value.

Assays:
dipeptidyl peptidase IV = dipeptidyl peptidase IV (Sus scrofa, UniProt P22411); test: DPP IV degradation, % intact peptide by HPLC; format: in vitro ADME, porcine; conditions: pig, purified porcine dipeptidyl peptidase IV (DPP IV), 37° C., pH 7.8
Description: (§1) HPLC peak area data were used to calculate the percentage intact peptide remaining at the various time points during the incubation.

[1] = molecular target: purified porcine dipeptidyl peptidase IV (Sus scrofa, UniProt P22411); test: DPP IV degradation, % intact peptide by HPLC; format: in vitro ADME; conditions: 37° C., pH 7.8
Description: as §1

human GIP receptor = molecular target: T1, human GIP receptor (Homo sapiens, UniProt P48546); test: Intracellular cAMP production in GIP-receptor transfected CHL cells; format: cell-based
T1 construct: expressed in transfected cells; host or cells: Chinese hamster lung (CHL) fibroblasts
T1 sequence (P48546 22-466): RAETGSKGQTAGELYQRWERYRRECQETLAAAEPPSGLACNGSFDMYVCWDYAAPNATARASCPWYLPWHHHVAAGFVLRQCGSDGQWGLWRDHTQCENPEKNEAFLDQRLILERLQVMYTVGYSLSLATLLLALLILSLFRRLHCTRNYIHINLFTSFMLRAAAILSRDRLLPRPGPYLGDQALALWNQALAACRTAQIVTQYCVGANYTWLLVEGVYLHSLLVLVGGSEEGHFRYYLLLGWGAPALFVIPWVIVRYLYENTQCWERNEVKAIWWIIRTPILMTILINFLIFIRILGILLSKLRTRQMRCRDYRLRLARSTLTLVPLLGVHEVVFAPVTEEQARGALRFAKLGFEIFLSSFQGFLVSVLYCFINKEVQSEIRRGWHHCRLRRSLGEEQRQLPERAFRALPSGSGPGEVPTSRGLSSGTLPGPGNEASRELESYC
Description: The cells were then incubated at 37° C. for 6 hours in 1 ml DMEM, supplemented with 0.5% (w/v) BSA and subsequently washed twice with HBS buffer (Hanks Buffered Saline solution). […] The medium was subsequently removed and the cells lysed with 1 ml of 5% trichloroacetic acid containing 0.1 mM unlabelled cAMP and 0.1 mM unlabelled ATP. The intracellular tritiated cAMP was then separated on Dowex and alumina exchange resins (Life Science Research, Larne, UK).

D3 mouse ES cell line = test: Differentiation of D3 mouse ES cells to beta cell phenotype, insulin release and insulin/C-peptide content; format: cell-based
Description: The D3 mouse ES cell line was routinely cultured on tissue culture plastic coated with 0.1% (w/v) gelatine in DMEM (25 mM glucose) containing 15% foetal bovine serum (FBS), 2 mM glutamine, 50 U/ml penicillin/streptomycin, non-essential amino acids, 0.1 mM β-mercaptoethanol, and 1000 U/ml LIF (leukaemia inhibitory factor). Medium was changed daily and cultures were passaged every 2 days onto fresh geletin-coated plates at a split ratio of 1:5. The cells were passaged by washing the cultures with phosphate-buffer saline and then detached from the plate with a trypsin (2.5 g/L)-EDTA (1 mM) solution. Prior to seeding into new flasks the ES cells were dissociated to single cells suspensions by repeated pipetting.
For differentiation of D3 mouse ES cells, an established protocol was used (Lumelsky, N. et al., 2001, Science 292(5520):1389-94). Briefly, LIF was removed from the culture medium, EBs (embryonic bodies) were then formed by growing the cells as non-adherent clusters. For the selection of nestin positive precursor cells, medium was changed to serum free ITSFn medium and for expanding these progenitors, cells were incubated in N2 serum free medium for 7 days (stage 4) and then differentiated into insulin-containing cell clusters by incubation in N2 serum free medium without bFGF, supplemented with 10 mM nicotinamide for 7 days (stage 5) (control protocol). […] The differentiated cells were harvested at the end of stage 4 and 5 and samples were seeded onto 24 well plates for insulin and C-peptide studies. Insulin release from differentiated cells from stages 4 and 5 were determined using cell monolayers. The cells were harvested with the aid of trypsin/EDTA (Gibco), seeded into 24-multiwell plates (Nunc, Rosklide, Denmark) at a density of 0.1×10^6 cells per well, and allowed to attach overnight.
Prior to the acute test, cells were washed three times and preincubated for 40 minutes at 37° C. in a 1.0 ml Krebs Ringer bicarbonate buffer (115 mM NaCl, 4.7 mM KCl, 1.28 mM CaCl2, 1.2 mM KH2PO4, 1.2 mM MgSO4, 10 mM NaHCO3, 5 g/l bovine serum albumin, pH 7.4) supplemented with 1.1 mM glucose. Test incubations were performed for 20 minutes at 37° C. using the same buffer supplemented with 5.6 mM glucose in the absence (control) and presence of various test agents as indicated in the Figures. After incubation, aliquots of buffer were removed and stored at −20° C. for insulin radioimmunoassay. For assessment of cellular hormone contents, the buffer was completely removed and […] of acid-ethanol solution (1.5% (v/v) HCl, 75% (v/v) ethanol, 23.5% (v/v) H2O) was added. The cells were disrupted with the aid of a pasture pipette and incubated overnight at 4° C. prior to centrifugation (900 rpm) and stored at −20° C.

ob/ob mice = test: Acute glucose lowering and insulin release, peptide given i.p. with glucose to 18 hour fasted ob/ob mice
Description: Obese diabetic (ob/ob) mice derived from the colony maintained at Aston University, UK (23) were used at 12-16 weeks of age. […] Drinking water and standard rodent maintenance diet (Trouw Nutrition, Cheshire, UK) were freely available.
Food intake and body weight were recorded daily from 5 days before commencement of the treatment regimes. Plasma glucose and insulin concentrations (10:00 h) were monitored at 2-4 day intervals. […] All acute tests were commenced at 10:00 h. […] Serum samples were taken for determination of glucagon concentrations. All other blood samples were collected from the cut tip of the tail vein of conscious mice into chilled fluoride/heparin coated glucose microcentrifuge tubes (Sarstedt, Nümbrecht, Germany) at the times indicated in the Figures. Blood samples were immediately centrifuged using a Beckman microcentrifuge (Beckman Instruments, Galway, Ireland) for 30 seconds at 13,000×g. The resulting plasma was then aliquoted into fresh tubes and stored at −20° C. prior to glucose and insulin determinations.

[2] = culture media supplemented with 1×10^-6 M peptide, Stage 4
[3] = culture media supplemented with 1×10^-6 M peptide, Stage 5

Chain of dipeptidyl peptidase IV (P22411 whole entry): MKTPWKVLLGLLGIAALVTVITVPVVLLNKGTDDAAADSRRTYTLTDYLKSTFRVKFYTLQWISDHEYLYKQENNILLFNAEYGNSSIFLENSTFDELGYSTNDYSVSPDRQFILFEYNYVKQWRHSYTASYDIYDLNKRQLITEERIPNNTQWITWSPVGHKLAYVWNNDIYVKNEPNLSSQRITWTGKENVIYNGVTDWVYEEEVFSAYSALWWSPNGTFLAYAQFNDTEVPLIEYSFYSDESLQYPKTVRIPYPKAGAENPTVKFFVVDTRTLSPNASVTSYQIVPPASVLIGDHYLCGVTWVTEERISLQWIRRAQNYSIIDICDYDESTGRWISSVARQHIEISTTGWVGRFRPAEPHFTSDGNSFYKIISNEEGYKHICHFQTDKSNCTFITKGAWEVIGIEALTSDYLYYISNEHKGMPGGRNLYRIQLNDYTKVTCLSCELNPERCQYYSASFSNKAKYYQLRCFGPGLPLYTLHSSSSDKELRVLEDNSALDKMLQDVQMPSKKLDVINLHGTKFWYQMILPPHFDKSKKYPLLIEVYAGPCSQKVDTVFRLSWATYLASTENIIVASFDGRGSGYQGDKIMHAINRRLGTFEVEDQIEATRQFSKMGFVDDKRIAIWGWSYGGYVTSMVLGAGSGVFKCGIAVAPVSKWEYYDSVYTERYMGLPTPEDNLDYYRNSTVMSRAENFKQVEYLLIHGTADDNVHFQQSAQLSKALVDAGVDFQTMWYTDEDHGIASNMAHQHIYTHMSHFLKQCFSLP
Chain of purified porcine dipeptidyl peptidase IV (P22411 whole entry): as above

CCCCCCCCCCCCCCCC(=O)NCCCC[C@H](NC(=O)[C@H](CC(=O)O)NC(=O)[C@H](CCSC)NC(=O)[C@H](C)NC(=O)[C@@H](NC(=O)[C@H](CO)NC(=O)[C@H](Cc1ccc(O)cc1)NC(=O)[C@H](CC(=O)O)NC(=O)[C@H](CO)NC(=O)[C@@H](NC(=O)[C@H](Cc1ccccc1)NC(=O)[C@@H](NC(=O)CNC(=O)[C@H](CCC(=O)O)NC(=O)[C@H](C)NC(=O)[C@@H](N)Cc1ccc(O)cc1)[C@@H](C)O)[C@@H](C)CC)[C@@H](C)CC)C(=O)N[C@H](C(=O)N[C@@H](Cc1c[nH]cn1)C(=O)N[C@@H](CCC(N)=O)C(=O)N[C@@H](CCC(N)=O)C(=O)N[C@@H](CC(=O)O)C(=O)N[C@@H](Cc1ccccc1)C(=O)N[C@H](C(=O)N[C@@H](CC(N)=O)C(=O)N[C@@H](Cc1c[nH]c2ccccc12)C(=O)N[C@@H](CC(C)C)C(=O)N[C@@H](CC(C)C)C(=O)N[C@@H](C)C(=O)N[C@@H](CCC(N)=O)C(=O)N[C@@H](CCCCN)C(=O)NCC(=O)N[C@@H](CCCCN)C(=O)N[C@@H](CCCCN)C(=O)N[C@@H](CC(N)=O)C(=O)N[C@@H](CC(=O)O)C(=O)N[C@@H](Cc1c[nH]c2ccccc12)C(=O)N[C@@H](CCCCN)C(=O)N[C@@H](Cc1c[nH]cn1)C(=O)N[C@@H](CC(N)=O)C(=O)N[C@H](C(=O)N[C@H](C(=O)N[C@@H](CCC(N)=O)C(=O)O)[C@@H](C)O)[C@@H](C)CC)C(C)C)[C@@H](C)CC [GIP(LysPAL^16)]
remaining at 2 h, 2 mM (dipeptidyl peptidase IV; 2 h incubation with DPP IV (5 mU), read-out: % Intact peptide remaining after time (h) 2): 100%
remaining at 8 h, 2 mM (dipeptidyl peptidase IV; 8 h incubation with DPP IV (5 mU), read-out: % Intact peptide remaining after time (h) 8): 100%
remaining at 24 h, 2 mM (dipeptidyl peptidase IV; 24 h incubation with DPP IV (5 mU), read-out: % Intact peptide remaining after time (h) 24): 100%
% Intact peptide remaining after time (h) 0 ([1]; 0 h incubation with DPP IV (5 mU)): 100%
% Intact peptide remaining after time (h) 24 ([1]; 24 h incubation with DPP IV (5 mU)): remained fully intact
pEC50 (human GIP receptor): 8.54
glucose-induced insulin release of differentiated stage 4 cells, modified versus control protocol (D3 mouse ES cell line; 1×10^-6 M peptide in media, stage 4, 0-22.0 mM glucose): significantly higher
response of differentiated stage 5 cells to glucose (D3 mouse ES cell line; 1×10^-6 M peptide in media, stage 5): appear not respond to glucose
increase in C-peptide content compared to control, stage 4 (D3 mouse ES cell line; 1×10^-6 M peptide, stage 4): 1.5 fold
increase in C-peptide content compared to control, stage 5 (D3 mouse ES cell line; 1×10^-6 M peptide, stage 5): 1.3 fold
C-Peptide content of differentiated D3 cluster cells, Stage 4 (D3 mouse ES cell line; [2]): 124.5 ± 3.13 pmol/mg protein/20 mins
Insulin content of differentiated D3 cluster cells, Stage 4 (D3 mouse ES cell line; [2]): 9154 ± 291.1 pmol/mg protein/20 mins
C-Peptide content of differentiated D3 cluster cells, Stage 5 (D3 mouse ES cell line; [3]): 121.9 ± 3.43 pmol/mg protein/20 mins
Insulin content of differentiated D3 cluster cells, Stage 5 (D3 mouse ES cell line; [3]): 8532 ± 626.5 pmol/mg protein/20 mins
plasma glucose concentrations and AUC (0-60 min) compared to glucose alone (ob/ob mice; 25 nmol/kg i.p. with glucose 18 mmol/kg): significantly reduced
overall enhancement of insulin release over native GIP (ob/ob mice; 25 nmol/kg i.p. with glucose, insulin AUC 0-60 min): 2.4 fold
